{
  "source": "patent US20140113949A1",
  "about": "“METHODS FOR REDUCING NEURODEGENERATION” (NESTEC S.A., priority 2011, published 2014)",
  "key": {"mTOR": {"tested_on": "mTOR", "test": "mTOR mRNA expression by semi-quantitative qPCR in MDCK cells", "format": "cell-based, Canine", "conditions": "mRNA normalized to TATA box binding protein", "protocol": "(§1) Cell Culture procedure: Commercially available Madin Darby Canine Kidney (MDCK) cells were obtained from ATCC as a stock suspension of immortalized cells. MDCK cells were cultured at 37° C. in an atmosphere of 95% air/5% CO2 and Dulbecco's Modified Eagle Medium (DMEM) media containing 10% fetal calf serum and 1% antibiotic/antimicrobial solution (DMEM-loaded). The media was changed and cells passed every 1 to 2 days using a solution containing 0.05% trypsin. For RNA extraction, cells were plated at a seeding density of 50,000 to 60,000 cells/cm^2 in 35 mm dishes. Twenty-four hours after seeding, media was changed to either control (DMEM-loaded) or test media (DMEM-loaded+1 nM melatonin). Cells were harvested 1, 3, or 5 days after exposure to control or test media. Media was changed in the remaining dishes on the days of cell harvesting. Total RNA was harvested from MDCK cell lysates using RNAlater RNA stabilization reagent and following the manufacturer's directions (Ambion, Austin, Tex.). mRNA transcripts of mTOR, S6 Kinase, and TATA box binding protein genes were analyzed by semi-quantitative qPCR on days 1, 3, and 5 of media treatment. TATA box binding protein gene transcript was used to normalize the expression of mTOR and S6 Kinase, as it is widely used as a “housekeeping” gene. The procedure in Example 1 was repeated."}, "S6 Kinase": {"tested_on": "S6 Kinase", "test": "S6 Kinase mRNA expression by semi-quantitative qPCR in MDCK cells", "format": "cell-based, Canine", "conditions": "mRNA normalized to TATA box binding protein", "protocol": "as §1"}, "[1]": {"conditions": "Trial 1, Day 1, control media + 1 nM melatonin"}, "[2]": {"conditions": "Trial 1, Day 3, control media + 1 nM melatonin"}, "[3]": {"conditions": "Trial 1, Day 5, control media + 1 nM melatonin"}, "[4]": {"conditions": "Trial 2, Day 1, control media + 1 nM melatonin"}, "[5]": {"conditions": "Trial 2, Day 3, control media + 1 nM melatonin"}, "[6]": {"conditions": "Trial 2, Day 5, control media + 1 nM melatonin"}},
  "data": [
    {"compound": "COc1ccc2[nH]cc(CCNC(C)=O)c2c1", "note": "[melatonin, 5-methoxy-N-acetyltryptamine]", "values": [
      {"measurement": "mTOR Induction", "setting": "mTOR; [1]", "result": 0.93},
      {"measurement": "mTOR Induction", "setting": "mTOR; [2]", "result": 0.76},
      {"measurement": "mTOR Induction", "setting": "mTOR; [3]", "result": 0.49},
      {"measurement": "mTOR Induction", "setting": "mTOR; [4]", "result": 0.98},
      {"measurement": "mTOR Induction", "setting": "mTOR; [5]", "result": 1.02},
      {"measurement": "mTOR Induction", "setting": "mTOR; [6]", "result": 1.01},
      {"measurement": "S6 Kinase Induction", "setting": "S6 Kinase; [1]", "result": 1.14},
      {"measurement": "S6 Kinase Induction", "setting": "S6 Kinase; [2]", "result": 0.66},
      {"measurement": "S6 Kinase Induction", "setting": "S6 Kinase; [3]", "result": 0.51},
      {"measurement": "S6 Kinase Induction", "setting": "S6 Kinase; [4]", "result": 1.05},
      {"measurement": "S6 Kinase Induction", "setting": "S6 Kinase; [5]", "result": 0.82},
      {"measurement": "S6 Kinase Induction", "setting": "S6 Kinase; [6]", "result": 0.75}
    ]}
  ]
}
